A value given as a limit tells only on which side of the number the result lay.

The target of this experiment is T1, human CXCR6 (Homo sapiens, UniProt O00574).
T1 construct: expressed in transfected cells
T1 sequence (O00574 whole entry): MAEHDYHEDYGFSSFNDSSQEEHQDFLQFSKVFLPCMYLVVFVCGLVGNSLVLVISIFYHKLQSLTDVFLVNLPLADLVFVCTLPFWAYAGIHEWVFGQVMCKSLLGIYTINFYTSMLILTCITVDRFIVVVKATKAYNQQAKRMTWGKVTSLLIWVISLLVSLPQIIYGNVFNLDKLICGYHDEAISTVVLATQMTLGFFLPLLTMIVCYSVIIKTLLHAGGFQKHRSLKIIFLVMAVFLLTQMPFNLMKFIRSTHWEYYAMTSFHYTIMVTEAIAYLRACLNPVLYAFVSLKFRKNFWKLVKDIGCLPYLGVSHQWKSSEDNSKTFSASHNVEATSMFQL
The experiment is described as follows: Radioligand Binding Assay (125I-CXCL16 displacement). Particulars: L1.2 cells stably transfected with human CXCR6 cDNA, 0.1 nM 125I-CXCL16, 4° C., three-hour incubation; read-out: Potency (IC50). The protocol:
L1.2 cells stably transfected with human CXCR6 cDNA ([…]) were incubated at 4° C. in HBSS containing 0.1 % BSA and 0.1 nM of ^125I-CXCL16 plus various concentrations of Compound. Following a three-hour incubation period, cells were aspirated onto polyethyleneimine-treated GF/B glass fiber filters (PerkinElmer, Waltham, MA) with a cell harvester (Tomtec, Hamden, CT) and washed twice with washing buffer (25 mM Hepes, 500 mM NaCl, 1 mM CaCI2, 5 mM MgCI2, pH 7.1). Fifty µl of MicroScint-20 (PerkinElmer, Waltham, MA) was added to each well of the filters, and radioactive emissions (cpm) were measured on a Packard TopCount Scintillation counter (PerkinElmer, Waltham, MA). IC50 values were calculated with GraphPad Prism using 3 parameter nonlinear regression. […]
As to `CCOc1cc(NC(=O)C2CC=CC[C@H]2N)ccc1S(=O)(=O)Nc1cccc(OC(F)(F)F)c1` (mixture of isomers) [Example 1.026], the IC50 was 0.75 to 2 µM.

`CCOc1cc(NC(=O)C2CCO[C@@H]2C)ccc1S(=O)(=O)Nc1cccc(OC(F)(F)F)c1` (mixture of isomers) [Example 1.137]: the IC50 lay in the range of 0.2 to 0.75 µM.

On to `CCOc1cc(NC(=O)C2COC[C@H]2O)ccc1S(=O)(=O)Nc1cccc(OC(F)(F)F)c1` (mixture of isomers) [Example 1.518], for which the IC50 fell in the range of 0.2 to 0.75 µM.

For the compound `COc1cc(NC(=O)[C@@H]2CCOC[C@H]2C)ccc1S(=O)(=O)Nc1cccc(OC(F)(F)F)c1` (racemic) [Example 1.007], the IC50 lay in the range of 0.2 to 0.75 µM.

`CCOc1cc(NC(=O)[C@@H]2COC[C@@H]2O)ccc1S(=O)(=O)Nc1cccc(OC(F)(F)F)c1` (racemic) [Example 1.010]: the IC50 is 0.2 to 0.75 µM.

Turning to `CCOc1cc(NC(=O)[C@H]2CCOC[C@@H]2CC)ccc1S(=O)(=O)Nc1cccc(OC(F)(F)F)c1` (racemic) [Example 1.065], the IC50 is not above 0.2 µM.

As to `CCOc1cc(NC(=O)[C@H]2CCOC[C@H]2O)ccc1S(=O)(=O)Nc1cccc(OC(F)(F)F)c1` (racemic) [Example 1.107], the IC50 lay in the range of 0.2 to 0.75 µM.

For the compound `CCOc1cc(NC(=O)[C@H](C2CCCC2)[C@@H](C)O)ccc1S(=O)(=O)Nc1cccc(OC(F)(F)F)c1` (racemic) [Example 1.147], the IC50 is not above 0.2 µM.

For `CCOc1cc(NC(=O)[C@H]2CC=CC[C@@H]2C(=O)O)ccc1S(=O)(=O)Nc1ccc(C)c(OC(F)(F)F)c1` (racemic) [Example 1.167], the concentration for half-maximal inhibition (IC50) lay in the range of 2 to 20 µM.

Turning to `COc1cc(NC(=O)[C@H]2CCOC[C@H]2C)ccc1S(=O)(=O)Nc1cccc(C(F)(F)F)c1` (racemic) [Example 1.219], the IC50 is 0.2 to 0.75 µM.

Turning to `CCOc1cc(NC(=O)[C@H]2CCOC[C@H]2CC)ccc1S(=O)(=O)Nc1cccc(OC(F)(F)F)c1` (racemic) [Example 1.233], the IC50 was not above 0.2 µM.

For the compound `CCOc1cc(NC(=O)[C@H]2CCOC[C@@H]2COC)ccc1S(=O)(=O)Nc1cccc(OC(F)(F)F)c1` (racemic) [Example 1.237], the IC50 lay within 0.2 to 0.75 µM.

On to `CCOc1cc(NC(=O)[C@H]2CCCC[C@H]2C(=O)O)ccc1S(=O)(=O)Nc1ccc(C)c(OC(F)(F)F)c1` (racemic) [Example 1.314], for which the 50% inhibitory concentration (IC50) was 0.75 to 2 µM.

Regarding `CCOc1cc(NC(=O)[C@H]2CC=CC[C@H]2C(=O)O)ccc1S(=O)(=O)Nc1ccc(C)c(OC(F)(F)F)c1` (racemic) [Example 1.333], the IC50 lay within 0.75 to 2 µM.

Consider `C[C@@H]1COCC[C@@H]1C(=O)Nc1ccc(S(=O)(=O)Nc2cccc(OC(F)(F)F)c2)c(C#N)c1` (racemic) [Example 1.341], for which the IC50 was 2 to 20 µM.

Take `CCOc1cc(NC(=O)[C@H]2CCOC[C@@H]2C)ccc1S(=O)(=O)Nc1cccc(OC(F)(F)F)c1` (racemic) [Example 1.477]: the half-maximal inhibitory concentration (IC50) is not above 0.2 µM.

For the compound `Cc1cc(NC(=O)[C@H]2CCOC[C@H]2C)ccc1S(=O)(=O)Nc1cccc(C(F)(F)F)c1` (racemic) [Example 1.483], the concentration for half-maximal inhibition (IC50) was 0.2 to 0.75 µM.

Consider `CCOc1cc(NC(=O)[C@H]2CCOC[C@H]2C)ccc1S(=O)(=O)Nc1cccc(OC(F)(F)F)c1` (racemic) [Example 1.514], for which the IC50 is not above 0.2 µM.

`Cc1cc(NC(=O)c2ccn(C)n2)ccc1S(=O)(=O)Nc1cccc(C(F)(F)F)c1` [Example 1.001]: the IC50 lay in the range of 2 to 20 µM.

With `Cc1cc(NC(=O)c2ccc(F)cc2)ccc1S(=O)(=O)Nc1cccc(C(F)(F)F)c1` [Example 1.002], the IC50 lay within 0.2 to 0.75 µM.

Regarding `CCOc1cc(NC(=O)[C@@H](CO)c2ccccc2)ccc1S(=O)(=O)Nc1ccc(C)c(OC(F)(F)F)c1` [Example 1.003], the IC50 was not above 0.2 µM.

Regarding `CCOc1cc(NC(=O)[C@@H](CO)C(C)C)ccc1S(=O)(=O)Nc1ccc(Cl)c(OC(F)(F)F)c1` [Example 1.004], the IC50 is not above 0.2 µM.

Turning to `CCOc1cc(NC(=O)[C@@H](CO)C(C)C)ccc1S(=O)(=O)Nc1ccc(OC)c(C(F)(F)F)c1` [Example 1.005], the IC50 is not above 0.2 µM.

Consider `CCOc1cc(NC(=O)[C@@H](CO)C(C)C)ccc1S(=O)(=O)Nc1ccc(CO)c(C(F)(F)F)c1` [Example 1.006], for which the IC50 is 2 to 20 µM.

With `COc1cc(NC(=O)C2CCCCC2)ccc1S(=O)(=O)Nc1cccc(C(F)(F)F)c1` [Example 1.008], the IC50 is 2 to 20 µM.

With `COc1cc(NC(=O)[C@@H](CO)C(C)C)ccc1S(=O)(=O)Nc1cccc(OC(F)(F)F)c1` [Example 1.009], the IC50 is not above 0.2 µM.

For `COc1cc(NC(=O)c2ccnn2C)ccc1S(=O)(=O)Nc1cc(Cl)cc(C(F)(F)F)c1` [Example 1.011], the IC50 was 0.75 to 2 µM.

Regarding `Cc1cc(NC(=O)[C@@H]2CCCN2C(=O)OC(C)(C)C)ccc1S(=O)(=O)Nc1cccc(C(F)(F)F)c1` [Example 1.012], the half-maximal inhibitory concentration (IC50) was in the range of 2 to 20 µM.

As to `CCOc1cc(NC(=O)C(CC2CC2)C(=O)O)ccc1S(=O)(=O)Nc1cccc(OC(F)(F)F)c1` (centres unmarked) [Example 1.013], the IC50 is not above 0.2 µM.

Turning to `CCOc1cc(NC(=O)C(CO)CC2CC2)ccc1S(=O)(=O)Nc1cccc(OC(F)(F)F)c1` (centres unmarked) [Example 1.014], the 50% inhibitory concentration (IC50) was not above 0.2 µM.

In the case of `COc1cc(NC(=O)c2ccnn2C)ccc1S(=O)(=O)Nc1ccc(C#N)c(OC(F)(F)F)c1` [Example 1.015], the IC50 lay within 0.75 to 2 µM.

On to `COc1cc(NC(=O)c2ccnn2C)ccc1S(=O)(=O)Nc1ccccc1OC(F)(F)F` [Example 1.016], for which the IC50 was in the range of 2 to 20 µM.

Regarding `CCOc1cc(NC(=O)[C@@H](CO)C(C)C)ccc1S(=O)(=O)Nc1cccc(C(C)(C)C)c1` [Example 1.017], the IC50 was not above 0.2 µM.

For `CCOc1cc(NC(=O)C(CO)C(C)C)ccc1S(=O)(=O)Nc1ccc(Cl)c(OC)c1` (centres unmarked) [Example 1.018], the concentration for half-maximal inhibition (IC50) is not above 0.2 µM.

Regarding `Cc1cc(NC(=O)c2ccoc2C)ccc1S(=O)(=O)Nc1cccc(C(F)(F)F)c1` [Example 1.019], the IC50 was 0.2 to 0.75 µM.

With `CCOc1cc(NC(=O)[C@@H](NC(=O)OC(C)(C)C)C(C)O)ccc1S(=O)(=O)Nc1cccc(OC(F)(F)F)c1` (some centres unmarked) [Example 1.020], the IC50 lay within 0.75 to 2 µM.

For the compound `CCOc1cc(NC(=O)[C@@H](O)C(C)C)ccc1S(=O)(=O)Nc1ccc(OC)c(C(F)(F)F)c1` [Example 1.021], the IC50 was not above 0.2 µM.

In the case of `CCOc1cc(NC(=O)[C@@H](CO)C(C)C)ccc1S(=O)(=O)Nc1cccc(OC(F)(F)F)c1` [Example 1.022], the IC50 was not above 0.2 µM.

Turning to `CCOc1cc(NC(=O)C(=O)c2ccccc2)ccc1S(=O)(=O)Nc1cccc(OC(F)(F)F)c1` [Example 1.023], the 50% inhibitory concentration (IC50) lay in the range of 0.2 to 0.75 µM.

In the case of `N#Cc1cc(NC(=O)[C@@H](CO)c2ccccc2)ccc1S(=O)(=O)Nc1cccc(OC(F)(F)F)c1` [Example 1.024], the IC50 was not above 0.2 µM.

Turning to `CCOc1cc(NC(=O)[C@@H](CO)C2CC2)ccc1S(=O)(=O)Nc1cccc(C(C)C)c1` [Example 1.025], the IC50 is not above 0.2 µM.

On to `CCc1cc(C(=O)Nc2ccc(S(=O)(=O)Nc3cccc(C(F)(F)F)c3)c(OC)c2)n(C)n1` [Example 1.027], for which the IC50 lay within 0.75 to 2 µM.

In the case of `CCOc1cc(NC(=O)[C@H]2CC[C@H](OC)CC2)ccc1S(=O)(=O)Nc1cccc(OC(F)(F)F)c1` [Example 1.028], the IC50 lay within 0.75 to 2 µM.

For `CCOc1cc(NC(=O)C2CC=CC[C@H]2O)ccc1S(=O)(=O)Nc1ccc(C)c(OC(F)(F)F)c1` (some centres unmarked) [Example 1.029], the IC50 was not above 0.2 µM.

In the case of `CCOc1cc(NC(=O)C2CCCNC2)ccc1S(=O)(=O)Nc1cccc(OC(F)(F)F)c1` (centres unmarked) [Example 1.030], the IC50 is 2 to 20 µM.

With `CCOc1cc(NC(=O)C(O)C2C=CCC2)ccc1S(=O)(=O)Nc1cccc(OC(F)(F)F)c1` (centres unmarked) [Example 1.031], the IC50 is not above 0.2 µM.

Consider `CCOc1cc(NC(=O)[C@@H](N)C(C)O)ccc1S(=O)(=O)Nc1cccc(OC(F)(F)F)c1` (some centres unmarked) [Example 1.032], for which the IC50 was not above 0.2 µM.

Take `COc1cc(NC(=O)[C@@H]2C=CCN2C(=O)OC(C)(C)C)ccc1S(=O)(=O)Nc1cccc(C(F)(F)F)c1` [Example 1.033]: the IC50 is 2 to 20 µM.

Turning to `CCCOc1cc(NC(=O)[C@@H](O)C(C)C)ccc1S(=O)(=O)Nc1cccc(OC(F)(F)F)c1` [Example 1.034], the IC50 is not above 0.2 µM.

As to `COc1cc(NC(=O)C2CC3CCC32O)ccc1S(=O)(=O)Nc1cccc(C(F)(F)F)c1` (centres unmarked) [Example 1.035], the IC50 lay within 0.2 to 0.75 µM.

Take `Cc1cc(NC(=O)c2ccnn2C)ccc1S(=O)(=O)Nc1cccc(C(F)(F)F)c1` [Example 1.036]: the IC50 was not above 0.2 µM.

As to `CCOc1cc(NC(=O)c2cccc(=O)n2C)ccc1S(=O)(=O)Nc1cccc(OC(F)(F)F)c1` [Example 1.037], the IC50 fell in the range of 0.2 to 0.75 µM.

In the case of `COc1cc(NC(=O)c2ccn(C)c(=O)c2)ccc1S(=O)(=O)Nc1cccc(OC(F)(F)F)c1` [Example 1.038], the IC50 lay within 0.2 to 0.75 µM.

In the case of `CCOc1cc(NC(=O)C(CC)C(O)C2CCOCC2)ccc1S(=O)(=O)Nc1cccc(OC(F)(F)F)c1` (centres unmarked) [Example 1.039], the half-inhibitory concentration (IC50) was not above 0.2 µM.

With `COc1cc(NC(=O)c2ccccc2)ccc1S(=O)(=O)Nc1cccc(C(F)(F)F)c1` [Example 1.040], the IC50 is 0.2 to 0.75 µM.

In the case of `COc1cc(NC(=O)c2ccnn2C)ccc1S(=O)(=O)Nc1cccc(OC(F)F)c1` [Example 1.041], the 50% inhibitory concentration (IC50) was 0.2 to 0.75 µM.

As for `COc1cc(NC(=O)C2CCOC2)ccc1S(=O)(=O)Nc1cccc(OC(F)(F)F)c1` (centres unmarked) [Example 1.042], the IC50 is 0.75 to 2 µM.

With `CCOc1cc(NC(=O)[C@H]2CC[C@@](C)(O)CC2)ccc1S(=O)(=O)Nc1cccc(OC(F)(F)F)c1` [Example 1.043], the half-maximal inhibitory concentration (IC50) was 2 to 20 µM.

Turning to `CCOc1cc(NC(=O)[C@@H](CO)C(C)C)ccc1S(=O)(=O)Nc1ccc(Cl)cc1` [Example 1.044], the IC50 fell in the range of 0.2 to 0.75 µM.

The values above are taken from patent publication US20230339851A1, “CXCR6 SULFONAMIDE COMPOUNDS” (CHEMOCENTRYX, INC., priority 2022, published 2023).
